According to patent US5270472A, “Alkanoyl L-carnitine amides with aminoacids and pharmaceutical compositions containing same for promoting regeneration of the nervous tissue, inhibiting neuronal degeneration, enhancing the process of learning and memory and for the treatment of coma” (Sigma-Tau Industrie Farmaceutiche Riunite S.p.A., priority 1991, dated 1993):
Structures can show the parent of a compound that is named as a salt.

Tests used:
[1] = test system: choline acetyltransferase (ChAT); assay: Choline acetyltransferase (ChAT) activity in PC 12 cells; type: cell-based, rat; conditions: 1 mM, 6 days
Procedure: (§1) Rat pheochromocytoma ((PC 12) cells were grown in RPMI 1640, supplemented with 5% heat inactivated horse serum +5% heat inactivated fetal calf serum at 37° C. in humidified incubator with 5% CO2 atmosphere and fed on alternate days. At subconfluency, cells were dislodged by vigorous shaking and reseeded at 1:1 ratio. Acetyl L-carnitine ALCAR® and ST 857 were dissolved in RPMI and added to cells at the final concentrations indicated in the various experiments.
The method described by Fonnum, F. in "A rapid radiochemical method for the determination of choline acetyltransferase". J. of Neurochem. (1975) vol. 24, 407:409 was used. Briefly, the compounds were added to the culture medium at final concentration of 1 mM.
The cells were grown for 6 days in the presence of ST 857. The medium was changed every other day. On the sixth day the cells were harvested and resuspended directly in a homogenization buffer for ChAT activity assay. Protein content was assayed on an aliquot of the cell suspensions.

Tolerability, LD50 = conditions: mouse, in vivo, mice
Procedure: In mice, LD50 orally is higher than 2 g/kg; LD50 intraperitoneally is higher than 600 mg/kg.

[2] = Tolerability, intraperitoneal or oral; type: in vivo
NGFR mRNA = NGFR mRNA in HCN-1A cells; type: cell-based, human; conditions: following ST 857 treatment
Source text: (§2) The HCN-1A cells are a non-tumoral cell line derived from human cortical neuroblasts which respond to NGF by differentiating into bipolar or multipolar neurite-bearing neurons.

HCN-1A cells = assay: Effect on cultured human cortical cell line (HCN-1A); type: cell-based
Source text: as §2
HCN-1A cells show immunoreactivity for different neurotransmitters such as GABA, glutamate, somatostatin, cholccystokinin-8 […] and VIP (vasoactive intestinal polypeptide).

PC 12 cells = assay: Neurite outgrowth experiment; type: cell-based, rat
Procedure: The rat pheochromocytoma (PC 12) cell line was chosen as an in vitro model system for NGF-responsive neurons. PC 12 cells are a cell line derived from a tumor of rat adrenal medulla that display NGFR similar to those described for sympathetic and sensory neurons, PC 12 typically respond to NGF by elongating neurites and developing into electrically excitable cells featuring some characteristics of the post-mitotic cholinergic neuronal phenotype.
as §1
PC 12 cells were plated out into 35 mm Petri dishes at a density 2×10^5 cells/ml. On the sixth day of either ALCAR® or ST 857 treatment (1 mM), the cells were added with NGF dissolved in RPMI 1640 at a suboptimal concentration (i.e. ineffective to stimulate neurite outgrowth) of 1 ng/mL (0.037 nM). On day 5 after addition, 100-120 cells from 5-12 randomly chosen microscope fields were counted and assayed for presence of neurities. […]

[3] = in the presence of NGF (10 ng/mL)

Row | Structure (SMILES) | ChAT activity ([1]; in the absence of NGF) [nmoli ACh/mg/hour] | ChAT activity [1, 3] [nmoli ACh/mg/hour] | LD50 (Tolerability, LD50; ip, intraperitoneally) [mg/kg] | LD50 (Tolerability, LD50; po, orally) [mg/kg] | tolerability [2] | NGFR mRNA (NGFR mRNA) | neurite outgrowth and cell differentiation (HCN-1A cells; 1 mM) | GABA immunoreactivity and formation of functional synapses (HCN-1A cells; in the presence and in the absence of NGF (10 ng/ml)) | enhancement of the action of NGF on PC 12 cells (PC 12 cells; compared with ALCAR® treatment) | stimulation of neurite outgrowth (in words) (PC 12 cells; in the absence of NGF)
1 | CC(=O)O[C@H](CC(=O)[O-])C[N+](C)(C)C [ACETYL L-CARNITINE, acetyl L-carnitine, reference compound] | 33.3 ± 4.2 | 133.3 ± 4.4 | – | – | – | – | – | – | – | –
2 | CC(=O)O[C@H](CC(=O)N[C@@H](CCCNC(=N)N)C(=O)O)C[N+](C)(C)C [ST 857, L-acetyl L-carnitinamide of L-arginine chloride hydrochloride] | 46.6 ± 2.5 | 140.0 ± 8.9 | > 600 | > 2000 | well tolerated | increased in these cells following ST 857 treatment, in a manner similar to that elicited by NGF | resulted in neurite outgrowth and cell differentiation toward the neuronal phenotype | induced also GABA immunoreactivity in HCN-1A and formation of functional synapses | enhanced by ST 857 treatment more potently than by ALCAR® treatment | effective in stimulating neurite outgrowth, even in the absence of NGF
